pIC50: −log10 of the molar value.
Assays:
PARP1 = biological target: T1, PARP1 (Homo sapiens, UniProt P09874); assay: PARP-1 enzymatic experiment (HT Universal Chemiluminescent PARP Assay kit); assay type: biochemical; settings: chemiluminescence
T1 construct: purchased TREVIGEN
Description: Experimental Example 1: PARP-1 Enzymatic Experiment
Experimental materials: test compounds; HT Universal Chemiluminescent PARP Assay kit (purchased from TREVIGEN); PBS (purchased from Wisent); Triton X-100 (purchased from Macklin); Envision multi-marker analyzer (PerkinElmer).
(I) Preparation of Reagents:
• 1. Washing solution: Triton X-100 was added to 1-fold PBS, and the final concentration of Triton X-100 was 0.1%. • 2. 1-fold PARP buffer: the 20-fold PARP buffer in the kit was subjected to 20-fold dilution with water to prepare a 1-fold PARP buffer. This buffer was used to prepare the compound, enzyme solution and substrate solution. • 3. 1-fold Strep-Diluent solution: the 10-fold Strep-diluent in the kit was subjected to 10-fold dilution with water to prepare a 1-fold Strep-diluent solution.
(II) Preparation of Test Compounds:
Test compounds were serially 5-fold diluted to the 8th concentration with a multichannel pipette, i.e. from 200 μM to 2.56 nM, with the DMSO concentration being 100%. 2 μL of each of the inhibitors at various concentration gradients was added to a compound intermediate plate, and 38 μL of the 1-fold PARP buffer was then added; the two were mixed well for use, and the DMSO concentration was 5%.
(III) Experimental Method:
• a) The 1-fold PARP buffer was added to a test plate at 50 μL per well and incubated at 25° C. for 30 min. • b) After the incubation was completed, the liquid in the test plate was discarded, and each of the compounds at various concentration gradients was pipetted from the compound intermediate plate and added into the test plate at 10 μL per well. A duplicate-well experiment was performed. • c) The test plate was added with the enzyme solution (0.5 IU) at 15 μL per well. The compound and enzyme were incubated together at 25° C. for 10 min. • d) After the incubation was completed, 25 μL of the 1-fold PARP Cocktail (comprising 2.5 μL of 10-fold PARP Cocktail, 2.5 μL of 10-fold Activated DNA and 20 μL of 1-fold PARP buffer) was added to each well of the test plate. The test plate was incubated at 25° C. for 1 h. The final concentration of the compound was 2 μM to 0.0256 nM, and the DMSO concentration was […]. • e) After the incubation was completed, the test plate was washed twice with 200 μL of washing solution per well and then washed twice with 200 μL of PBS per well. • f) Strep-HRP in the kit was subjected to 500-fold dilution with the 1-fold Strep-Diluent solution, added to the test plate at 50 μL per well, and then incubated at 25° C. for 1 h. • g) After the incubation was completed, the test plate was washed twice with 200 μL of washing solution per well and then washed twice with 200 μL of PBS per well.
PeroxyGlow A and B in the kit were mixed at ratio of 1:1, and the mixed solution was added to the test plate at 100 μL per well. Chemiluminescence was immediately read using a PerkinElmer Envision multi-marker analyzer with an integration time of 0.5 s.
Data analysis: the original data was converted to inhibition using the equation (sample−Min)/(Max−Min)×[…], and the IC50 value was then curve filled using four parameters (obtained from the “log(inhibitor) vs. response-variable slope” model in GraphPad Prism).

[1] = Metabolic stability in liver microsomes, human; assay type: in vitro ADME; settings: Human liver microsomes 0.5 mg/mL, 1 μM compound, NADPH, 37° C.
Description: Experimental Example 7. Metabolic Stability in Liver Microsomes
Experimental objective: to test the metabolic stability of test compounds in liver microsomes of three species.
Experimental method: 1 μM test compound and a microsome (0.5 mg/mL) were incubated at 37° C. in the presence of an NADPH regeneration system; positive controls were testosterone (3A4 substrate), propylamine propiophenone (2D6 substrate) and diclofenac (2C9 substrate), and also at 37° C., a positive control was incubated with a microsome (0.5 mg/mL) in the presence of an NADPH regenerating system; the reaction was stopped by direct mixing of the sample with cold acetonitrile containing an internal standard at various time points (0, 5, 10, 20, 30 and 60 min); the compound and microsome were incubated for 60 min in the absence of an NADPH regenerating system; one parallel (n=1) was set at each time point; the samples were analyzed by LC/MS/MS; the concentration of the compound was characterized by the ratio of the analyte peak area to the internal standard peak area.

[2] = system: BRCA-wild type MDA-MB-231 cells; assay: Anti-proliferation experiment on MDA-MB-231 CTG cells; assay type: cell-based; settings: Homo sapiens, MDA-MB-231, 72 h; 3 days incubation, CellTiter-Glo
Description: Experimental Example 3: Anti-Proliferation Experiment on MDA-MB-231 CTG Cells
Experimental materials: test compounds; R DMEM medium; fetal bovine serum; penicillin/streptomycin antibiotic; MDA-MB-231 cell line; Envision multi-label analyzer.
MDA-MB-231 cells were seeded in a white 96-well plate by adding 80 μL of cell suspension (containing 5000 MDA-MB-231 cells) to each well. The cell plate was incubated in a CO2 incubator overnight.
Eight concentration points were set for each compound, test compounds were serially 3-fold diluted to the 8th concentration with a multichannel pipette, i.e. from 2 mM to 920 nM, and a duplicate well experiment was performed. 78 μL of medium was added to a intermediate plate, 2 μL of each of serially diluted compounds was transferred to corresponding wells of the intermediate plate, and after mixing, the mixture was transferred to the cell plate at 20 μL per well. The cell plate was incubated in a CO2 incubator for 3 days. Another cell plate was provided for reading signal values on the day of compound addition and these signal values were used as Max values in data analysis. Promega CellTiter-Glo was added to this cell plate at 25 μL per well and the luminescence signals were stabilized by incubation for 10 min at room temperature. Readings were taken using a PerkinElmer Envision multi-marker analyzer.
Promega CellTiter-Glo was added to the cell plate at 25 μL per well and the luminescence signals were stabilized by incubation for 10 min at room temperature. Readings were taken using a PerkinElmer Envision multi-marker analyzer.
Data analysis: the original data was converted to inhibition using the equation (sample−Min)/(Max−Min)×100%, and the IC50 value was then curve fitted using four parameters (obtained from the “log(inhibitor) vs. response-variable slope” model in GraphPad Prism). Table 1 provides the inhibitory activity of the compounds disclosed herein against MDA-MB-231 cell proliferation.

T1 sequence (P09874 whole entry): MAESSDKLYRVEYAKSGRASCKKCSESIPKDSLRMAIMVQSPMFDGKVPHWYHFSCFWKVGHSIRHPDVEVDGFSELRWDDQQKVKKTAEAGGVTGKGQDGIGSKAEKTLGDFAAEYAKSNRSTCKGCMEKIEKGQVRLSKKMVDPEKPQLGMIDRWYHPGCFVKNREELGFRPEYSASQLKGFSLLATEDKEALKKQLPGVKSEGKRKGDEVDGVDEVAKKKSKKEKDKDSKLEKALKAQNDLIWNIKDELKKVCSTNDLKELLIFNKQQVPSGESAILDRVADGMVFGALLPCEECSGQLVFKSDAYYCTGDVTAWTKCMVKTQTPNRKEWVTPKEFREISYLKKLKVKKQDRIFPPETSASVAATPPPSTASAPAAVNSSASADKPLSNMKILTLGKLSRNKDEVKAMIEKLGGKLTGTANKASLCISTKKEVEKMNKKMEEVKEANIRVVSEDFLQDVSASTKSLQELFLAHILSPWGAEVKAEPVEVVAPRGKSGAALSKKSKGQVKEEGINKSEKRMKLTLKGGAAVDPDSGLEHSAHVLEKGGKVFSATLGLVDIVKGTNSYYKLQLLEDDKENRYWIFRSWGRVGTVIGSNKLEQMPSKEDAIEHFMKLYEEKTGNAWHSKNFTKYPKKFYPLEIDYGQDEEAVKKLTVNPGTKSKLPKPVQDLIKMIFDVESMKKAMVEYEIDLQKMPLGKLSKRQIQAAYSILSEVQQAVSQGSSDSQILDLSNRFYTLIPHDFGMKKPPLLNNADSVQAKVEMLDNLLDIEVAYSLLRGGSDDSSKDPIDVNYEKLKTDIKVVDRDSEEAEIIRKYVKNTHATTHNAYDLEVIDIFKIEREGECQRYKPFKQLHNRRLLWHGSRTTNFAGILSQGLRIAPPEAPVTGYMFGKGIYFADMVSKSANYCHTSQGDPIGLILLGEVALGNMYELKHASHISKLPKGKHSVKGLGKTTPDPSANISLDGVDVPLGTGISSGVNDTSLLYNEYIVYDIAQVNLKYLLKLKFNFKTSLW

Row | pIC50 (PARP1) | Residual content after 60 min of incubation [1] | pIC50 [2] | Structure (SMILES)
1 | 8.44 | 73.8% | < 5.00 | O=C1NOCc2c(-c3ccc(C4CCCN4)c(F)c3)[nH]c3cccc1c23 (stereo not drawn) [Example 11_A]
2 | 8.70 | 60.4% | < 5.00 | O=C1NOCc2c(-c3ccc(C4CCCN4)cc3)[nH]c3cc(F)cc1c23 (single isomer, unassigned) [Example 24_A]
3 | 8.47 | 29.6% | < 5.00 | CC1(c2ccc(-c3[nH]c4cc(F)cc5c4c3CONC5=O)cc2F)CCCN1 (single isomer, unassigned) [Example 26_A]
4 | 8.55 | 53.7% | < 5.00 | CC1(c2ccc(-c3[nH]c4cccc5c4c3CONC5=O)cc2)CCCN1 (stereo not drawn) [Example 6_A]

Row | Structure (SMILES) | pIC50 (PARP1) | Residual content after 60 min of incubation [1] | pIC50 [2]
5 | CC1(c2ccc(-c3[nH]c4cc(F)cc5c4c3CONC5=O)cc2)CCCN1 (stereo not drawn) [Example 25_A] | 8.64 | 35.9% | < 5.00
